These results are taken from PubChem BioAssay (NCI).

Some test systems named below: ACHN renal; HOP-62 NSCLC; IGROV1 ovarian; NCI-H23 lung; OVCAR-8 ovarian; SK-MEL-2 melanoma; SNB-75 CNS; UACC-62 melanoma; MCF7 breast.
Common to all, as to assay: growth of human tumour cells (NCI), 48 h

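Each compound was tested at five concentrations against cells in 96-well plates for 48 hours. The concentration for 50% growth inhibition is given as GI50. The concentration for full growth arrest is given as TGI.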 Where only a bound is given, the exact number is not on record here.

In the case of `COC(=O)C(CCS(=O)(=O)CC(=O)C(=O)Nc1cccc(C(C)=O)c1)C(=O)OC`, the TGI with ACHN renal, with HOP-62 NSCLC, in the assay on IGROV1 ovarian, in the assay on NCI-H23 lung, in the assay on OVCAR-8 ovarian and in the assay on SK-MEL-2 melanoma was above 100 µM in each case. For the same compound, the TGI with SNB-75 CNS and in the assay with UACC-62 melanoma was above 100 µM throughout.
For the compound `O=C1NC(=S)NC(=O)C1=Cc1cc2c(cc1[N+](=O)[O-])OCO2`, the TGI with ACHN renal, in the assay with HOP-62 NSCLC, with IGROV1 ovarian, in the assay with OVCAR-8 ovarian, in the assay with SK-MEL-2 melanoma and in the assay on SNB-75 CNS was above 100 µM each time. For the same compound, in the assay with UACC-62 melanoma, the TGI is above 100 µM.
Regarding `CCCN(CCCCC(NC(C)=O)C(=O)NCc1ccccc1)C(=O)NCCCl` (configuration not stated), the TGI in the assay with ACHN renal, in the assay on HOP-62 NSCLC, in the assay on NCI-H23 lung, with OVCAR-8 ovarian, in the assay on SNB-75 CNS and in the assay with UACC-62 melanoma was above 100 µM throughout.
`CC[C@]1(O)CC2CN(CCc3c([nH]c4ccccc34)[C@@](C(=O)OC)(c3cc4c(cc3OC)N(C)[C@H]3[C@@](O)(C(=O)OC)[C@H](OC(C)=O)[C@]5(CC)C=CCN6CC[C@]43[C@@H]65)C2)C1` (some centres not stated): the GI50 in the assay with ACHN renal is 76 nM; in the assay with HOP-62 NSCLC, below 5 nM; in the assay with IGROV1 ovarian it was 5.17 nM; in the assay on MCF7 breast it was below 5 nM; in the assay on NCI-H23 lung, below 5 nM; with OVCAR-8 ovarian, below 5 nM. In addition, the GI50 in the assay on SK-MEL-2 melanoma, in the assay with SNB-75 CNS and in the assay on UACC-62 melanoma was below 5 nM throughout. The TGI was above 50 µM in the assay with ACHN renal; 9.89 µM with HOP-62 NSCLC; above 30 µM with IGROV1 ovarian; 6.07 µM with MCF7 breast; 26.7 µM in the assay with NCI-H23 lung; above 34.6 µM in the assay with OVCAR-8 ovarian. Besides, the values for the TGI with SK-MEL-2 melanoma, in the assay with SNB-75 CNS and in the assay with UACC-62 melanoma were 6.95 µM, 5.05 µM and 8.91 µM, respectively.
On to `CCCCCCCCCCC/C(=N/O)c1ccc(O)c2ncccc12`, for which the TGI came to 6.14 µM with ACHN renal; 17.5 µM in the assay with HOP-62 NSCLC; 57.4 µM with NCI-H23 lung; 16.2 µM in the assay on OVCAR-8 ovarian; 5.86 µM in the assay on SK-MEL-2 melanoma; 13.2 µM in the assay on SNB-75 CNS.
Take `N#CC(C(=O)/C(=N/N)C(C#N)c1ccc(Cl)cc1)c1ccc(Cl)cc1` (configuration not stated): the TGI with ACHN renal, in the assay on HOP-62 NSCLC, in the assay on IGROV1 ovarian, in the assay on NCI-H23 lung, with OVCAR-8 ovarian and with SK-MEL-2 melanoma was above 100 µM in each case. For the same compound, the TGI with SNB-75 CNS and with UACC-62 melanoma was above 100 µM in each case.
Take `CC(C)N(C(=O)C12C3C4C5(C#N)C3C1(I)C5C42I)C(C)C` (configuration not stated): the TGI in the assay with ACHN renal, with HOP-62 NSCLC, in the assay with IGROV1 ovarian, with NCI-H23 lung, in the assay on OVCAR-8 ovarian and with SK-MEL-2 melanoma was above 100 µM each time. For the same compound, the TGI with SNB-75 CNS and in the assay with UACC-62 melanoma was above 100 µM each time.
Regarding `Cc1ccccc1-c1c(N)nc(NC#N)nc1C(=O)Nc1ccccc1`, the TGI in the assay with ACHN renal, with HOP-62 NSCLC, in the assay with IGROV1 ovarian, in the assay with NCI-H23 lung, in the assay on SK-MEL-2 melanoma and in the assay with SNB-75 CNS was above 100 µM throughout. In the assay with UACC-62 melanoma, this compound gave a TGI above 100 µM.
Take `Cc1cccc(C(C)(C)C)c1NC(=O)C(=O)C(C(=O)/C=C\c1ccccc1)C1OC(=O)c2ccccc21` (configuration not stated): the TGI in the assay with ACHN renal, with HOP-62 NSCLC, with IGROV1 ovarian, in the assay with NCI-H23 lung, in the assay on OVCAR-8 ovarian and with SNB-75 CNS was above 100 µM in each case. In addition, the TGI with UACC-62 melanoma was above 100 µM.
As to `CCOc1ccc(N=Cc2cccc3cccnc23)cc1`, the TGI in the assay on ACHN renal, in the assay on HOP-62 NSCLC, in the assay on IGROV1 ovarian, in the assay on NCI-H23 lung, in the assay on OVCAR-8 ovarian and in the assay on SK-MEL-2 melanoma was above 100 µM in each case. The TGI in the assay with SNB-75 CNS and in the assay on UACC-62 melanoma was above 100 µM each time.
Take `CC(O)/C=C/C(CCC(C)CO)C(C)C` (configuration not stated): the TGI with ACHN renal, in the assay on HOP-62 NSCLC, in the assay with IGROV1 ovarian, in the assay on NCI-H23 lung, in the assay on OVCAR-8 ovarian and in the assay on SK-MEL-2 melanoma was above 100 µM throughout. The TGI in the assay with SNB-75 CNS and in the assay with UACC-62 melanoma was above 100 µM in each case.
Regarding `O=C1C=C[C@@]23CC1C(O)C[C@H]2C=Cc1ccccc13` (some centres not stated), the TGI with ACHN renal, in the assay on HOP-62 NSCLC, with IGROV1 ovarian, in the assay with OVCAR-8 ovarian, in the assay with SK-MEL-2 melanoma and in the assay with SNB-75 CNS was above 100 µM in each case. The same compound had a TGI with UACC-62 melanoma above 100 µM.
Turning to `CCCCCCCCCCCCCCCCCC(=O)OCC(CN(C)CCN(C)C)OC(=O)CCCCCCCCCCCCCCCCC` (configuration not stated), the TGI in the assay with ACHN renal, in the assay with HOP-62 NSCLC, with IGROV1 ovarian, with NCI-H23 lung, in the assay on OVCAR-8 ovarian and in the assay on SK-MEL-2 melanoma was above 100 µM each time. The TGI in the assay with SNB-75 CNS and in the assay on UACC-62 melanoma was above 100 µM in each case.
As to `CSc1nc(NC2OCC(OC(C)=O)C(OC(C)=O)C2OC(C)=O)c2c(OC(C)=O)c(C)c(=O)oc2n1` (configuration not stated), the TGI in the assay on ACHN renal, with HOP-62 NSCLC, in the assay on IGROV1 ovarian, in the assay with NCI-H23 lung, in the assay with OVCAR-8 ovarian and in the assay with SK-MEL-2 melanoma was above 100 µM throughout. Moreover, the TGI with SNB-75 CNS and with UACC-62 melanoma was above 100 µM in each case.
Consider `Cc1c(/C=N/NS(=O)(=O)c2ccccc2)no[n+]1[O-]`, for which the TGI with IGROV1 ovarian, in the assay on NCI-H23 lung, in the assay with OVCAR-8 ovarian, in the assay with SK-MEL-2 melanoma and in the assay with UACC-62 melanoma was above 100 µM each time.
With `COc1ccc(/C=N/N=C(\N)NO)cc1OC`, the TGI in the assay on ACHN renal, in the assay on HOP-62 NSCLC, in the assay on IGROV1 ovarian, in the assay with NCI-H23 lung, in the assay on OVCAR-8 ovarian and in the assay on SK-MEL-2 melanoma was above 100 µM each time. In addition, the TGI with SNB-75 CNS is above 100 µM; in the assay with UACC-62 melanoma it was 72.1 µM.
